Measurements taken from PubChem BioAssay AID1963827 (Molecular Pharmacology Branch, DTP, NCI, 2024).

Test system: 994946-033-R-J1-PDC complex spheroid viability
Assay: Anticancer human tumor 994946-033-R-J1-PDC patient-derived melanoma cell line growth inhibition [POLQ]
Details: for IC50: curve of first compound; for viability, T/C: stronger effect = lower value; active = viability on the fitted dose curve at most 10% of control; inactive = the rest
Method in brief: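 Growth inhibition in 3D: complex spheroids (tumor PDC, HUVEC, MSC) treated with POLQ inhibitor combinations; where Cmax unknown, highest tested concentration 10 microM, except SN-38 at 1 microM.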

[1] = second compound 0.0316 µM, first compound 0.0316 µM
[2] = second compound 0.0316 µM, first compound 0.1 µM
[3] = second compound 0.0316 µM, first compound 0.316 µM
[4] = second compound 0.0316 µM, first compound 1 µM
[5] = second compound 0.0316 µM, first compound 3.16 µM
[6] = second compound 0.0316 µM, first compound 10 µM
[7] = second compound 0.1 µM, first compound 0.0316 µM
[8] = second compound 0.1 µM, first compound 0.1 µM
[9] = second compound 0.1 µM, first compound 0.316 µM
[10] = second compound 0.1 µM, first compound 1 µM
[11] = second compound 0.1 µM, first compound 3.16 µM
[12] = second compound 0.1 µM, first compound 10 µM
[13] = second compound 0.316 µM, first compound 0.0316 µM
[14] = second compound 0.316 µM, first compound 0.1 µM
[15] = second compound 0.316 µM, first compound 0.316 µM
[16] = second compound 0.316 µM, first compound 1 µM
[17] = second compound 0.316 µM, first compound 3.16 µM
[18] = second compound 0.316 µM, first compound 10 µM
[19] = second compound 1 µM, first compound 0.0316 µM
[20] = second compound 1 µM, first compound 0.1 µM
[21] = second compound 1 µM, first compound 0.316 µM
[22] = second compound 1 µM, first compound 1 µM
[23] = second compound 1 µM, first compound 3.16 µM
[24] = second compound 1 µM, first compound 10 µM
[25] = second compound 3.16 µM, first compound 0.0316 µM
[26] = second compound 3.16 µM, first compound 0.1 µM
[27] = second compound 3.16 µM, first compound 0.316 µM
[28] = second compound 3.16 µM, first compound 1 µM
[29] = second compound 3.16 µM, first compound 3.16 µM
[30] = second compound 3.16 µM, first compound 10 µM
[31] = second compound 10 µM, first compound 0.0316 µM
[32] = second compound 10 µM, first compound 0.1 µM
[33] = second compound 10 µM, first compound 0.316 µM
[34] = second compound 10 µM, first compound 1 µM
[35] = second compound 10 µM, first compound 3.16 µM
[36] = second compound 10 µM, first compound 10 µM
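Also: spheroids exposed to drugs for 7 days.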
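For viability, T/C in this document: 100% = DMSO vehicle treated spheroids.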

CCCS(=O)(=O)Nc1ccc(F)c(C(=O)c2c[nH]c3ncc(-c4ccc(Cl)cc4)cc23)c1F + Nc1ccc(C#CCN(C(=O)Cc2ncc(C(F)(F)F)cc2C(F)(F)F)c2ccc(F)cc2)nn1
6.8 µM: IC50 (second compound 0.316 µM)
7.46 µM: IC50 (second compound 1 µM)
inactive: viability, T/C [1] 64.2% | viability, T/C [2] 88% | viability, T/C [3] 102% | viability, T/C [4] 75.3% | viability, T/C [5] 107% | viability, T/C [6] 31.9% | viability, T/C [7] 99.6% | viability, T/C [8] 93% | viability, T/C [9] 95.9% | viability, T/C [10] 115% | viability, T/C [11] 100% | viability, T/C [12] 26.8% | viability, T/C [13] 80.6% | viability, T/C [14] 98.9% | viability, T/C [15] 93.9% | viability, T/C [16] 118% | viability, T/C [17] 84.5% | viability, T/C [18] 32.5% | viability, T/C [19] 84.5% | viability, T/C [20] 94.2% | viability, T/C [21] 114% | viability, T/C [22] 124% | viability, T/C [23] 108% | viability, T/C [24] 31.3% | viability, T/C [25] 95.5% | viability, T/C [26] 134% | viability, T/C [27] 99.2% | viability, T/C [28] 127% | viability, T/C [29] 90.9% | viability, T/C [30] 34.6% | viability, T/C [31] 114% | viability, T/C [32] 85% | viability, T/C [33] 85.9% | viability, T/C [34] 96.2% | viability, T/C [35] 95.6% | viability, T/C [36] 19.6%
6.3 µM: IC50 (second compound 10 µM)
6.95 µM: IC50 (second compound 0.1 µM)
7.31 µM: IC50 (second compound 3.16 µM)
6.87 µM: IC50 (second compound 0.0316 µM)

COc1ccc([C@@H](O)c2cc(-c3ncnc4cc(N5CCOCC5)ccc34)c(F)cc2Cl)nn1 + Cc1cccc(N(C)C(=O)C2C(O)CCN2c2nc(C)cc(C(F)(F)F)c2C#N)c1
6.2 µM: IC50 (second compound 10 µM)
inactive: viability, T/C [1] 108% | viability, T/C [2] 95.1% | viability, T/C [3] 106% | viability, T/C [4] 64.1% | viability, T/C [5] 60.7% | viability, T/C [6] 32.5% | viability, T/C [7] 90.9% | viability, T/C [8] 105% | viability, T/C [9] 93.3% | viability, T/C [10] 78.5% | viability, T/C [11] 71.6% | viability, T/C [12] 38.4% | viability, T/C [13] 118% | viability, T/C [14] 94.1% | viability, T/C [15] 103% | viability, T/C [16] 60.4% | viability, T/C [17] 45.6% | viability, T/C [18] 45.1% | viability, T/C [19] 104% | viability, T/C [20] 96.6% | viability, T/C [21] 82% | viability, T/C [22] 105% | viability, T/C [23] 60.9% | viability, T/C [24] 42.1% | viability, T/C [25] 115% | viability, T/C [26] 125% | viability, T/C [27] 101% | viability, T/C [28] 60.5% | viability, T/C [29] 56.8% | viability, T/C [30] 38.6% | viability, T/C [31] 74.9% | viability, T/C [32] 101% | viability, T/C [33] 60.3% | viability, T/C [34] 76.6% | viability, T/C [35] 62.7% | viability, T/C [36] 41.1%
6.54 µM: IC50 (second compound 0.1 µM)
6.16 µM: IC50 (second compound 1 µM)
2.65 µM: IC50 (second compound 3.16 µM)
4.06 µM: IC50 (second compound 0.0316 µM)
2.25 µM: IC50 (second compound 0.316 µM)

CC1COCCN1c1cc(C2(O)CC3CCC(C2)O3)c2cnn(-c3ccn[nH]3)c2n1 (stereo not given) + Nc1ccc(C#CCN(C(=O)Cc2ncc(C(F)(F)F)cc2C(F)(F)F)c2ccc(F)cc2)nn1
0.0513 µM: IC50 (second compound 0.0316 µM)
< 0.0316 µM: IC50 (second compound 0.1 µM) | IC50 (second compound 0.316 µM) | IC50 (second compound 10 µM)
inactive: viability, T/C [1] 59.9% | viability, T/C [2] 36.3% | viability, T/C [3] 23.4% | viability, T/C [4] 18.8% | viability, T/C [5] 13.9% | viability, T/C [7] 43.3% | viability, T/C [8] 27.6% | viability, T/C [9] 24.2% | viability, T/C [10] 19.9% | viability, T/C [11] 10.6% | viability, T/C [13] 48.5% | viability, T/C [14] 24.9% | viability, T/C [15] 26.3% | viability, T/C [16] 19.6% | viability, T/C [17] 17.6% | viability, T/C [18] 9.49% | viability, T/C [19] 74.5% | viability, T/C [20] 31.9% | viability, T/C [21] 33.7% | viability, T/C [22] 10.7% | viability, T/C [23] 13% | viability, T/C [24] 9.29% | viability, T/C [25] 55.6% | viability, T/C [26] 22.8% | viability, T/C [27] 19.8% | viability, T/C [28] 21.4% | viability, T/C [29] 17.8% | viability, T/C [30] 8.76% | viability, T/C [31] 38.3% | viability, T/C [32] 54.1% | viability, T/C [33] 24.6% | viability, T/C [34] 23.6% | viability, T/C [35] 14.6%
0.0386 µM: IC50 (second compound 3.16 µM)
0.0687 µM: IC50 (second compound 1 µM)
active: viability, T/C [6] 6.85% | viability, T/C [12] 9.96% | viability, T/C [36] 5.15%

C=CC(=O)N1CCN(c2nc(=O)n(-c3c(C)ccnc3C(C)C)c3nc(-c4c(O)cccc4F)c(F)cc23)C(C)C1 (stereo not given) + Cc1cccc(N(C)C(=O)C2C(O)CCN2c2nc(C)cc(C(F)(F)F)c2C#N)c1
inactive: viability, T/C [1] 75.8% | viability, T/C [2] 101% | viability, T/C [3] 112% | viability, T/C [4] 126% | viability, T/C [5] 110% | viability, T/C [6] 132% | viability, T/C [7] 94.5% | viability, T/C [8] 118% | viability, T/C [9] 129% | viability, T/C [10] 123% | viability, T/C [11] 119% | viability, T/C [12] 113% | viability, T/C [13] 115% | viability, T/C [14] 114% | viability, T/C [15] 94.2% | viability, T/C [16] 140% | viability, T/C [17] 123% | viability, T/C [18] 93.8% | viability, T/C [19] 113% | viability, T/C [20] 109% | viability, T/C [21] 91.1% | viability, T/C [22] 107% | viability, T/C [23] 90.2% | viability, T/C [24] 93.9% | viability, T/C [25] 130% | viability, T/C [26] 104% | viability, T/C [27] 132% | viability, T/C [28] 119% | viability, T/C [29] 105% | viability, T/C [30] 129% | viability, T/C [31] 84.7% | viability, T/C [32] 101% | viability, T/C [33] 105% | viability, T/C [34] 115% | viability, T/C [35] 96.3% | viability, T/C [36] 106%
> 10 µM: IC50 (second compound 0.0316 µM) | IC50 (second compound 0.1 µM) | IC50 (second compound 0.316 µM) | IC50 (second compound 1 µM) | IC50 (second compound 3.16 µM) | IC50 (second compound 10 µM)

C#Cc1c(F)ccc2cc(O)cc(-c3ncc4c(N5CC6CCC(C5)N6)nc(OCC56CCCN5CC(F)C6)nc4c3F)c12 (stereo not given) + Cc1cccc(N(C)C(=O)C2C(O)CCN2c2nc(C)cc(C(F)(F)F)c2C#N)c1
active: viability, T/C [24] 9.05% | viability, T/C [30] 5.59% | viability, T/C [36] 4.03%
4.78 µM: IC50 (second compound 3.16 µM)
5.91 µM: IC50 (second compound 10 µM)
7.26 µM: IC50 (second compound 0.1 µM)
5.27 µM: IC50 (second compound 1 µM)
4.35 µM: IC50 (second compound 0.316 µM)
inactive: viability, T/C [1] 97.6% | viability, T/C [2] 103% | viability, T/C [3] 101% | viability, T/C [4] 93.8% | viability, T/C [5] 76.5% | viability, T/C [6] 12% | viability, T/C [7] 77% | viability, T/C [8] 112% | viability, T/C [9] 101% | viability, T/C [10] 106% | viability, T/C [11] 103% | viability, T/C [12] 30.7% | viability, T/C [13] 119% | viability, T/C [14] 102% | viability, T/C [15] 114% | viability, T/C [16] 82% | viability, T/C [17] 64.7% | viability, T/C [18] 18.1% | viability, T/C [19] 121% | viability, T/C [20] 99.5% | viability, T/C [21] 105% | viability, T/C [22] 107% | viability, T/C [23] 82.7% | viability, T/C [25] 106% | viability, T/C [26] 95.3% | viability, T/C [27] 79.1% | viability, T/C [28] 82.8% | viability, T/C [29] 78.3% | viability, T/C [31] 111% | viability, T/C [32] 104% | viability, T/C [33] 97.7% | viability, T/C [34] 95.9% | viability, T/C [35] 114%
5.05 µM: IC50 (second compound 0.0316 µM)
